The values that follow are results of earlier work, collected in US5399360A, “Pharmaceutical compositions” (Sandoz Pharmaceuticals Corp., priority 1986, dated 1995).

For this data set the following is noted: described in German Patent 2,111,071.

In the case of `CN1CCC(=C2c3ccccc3CC(=O)c3sccc32)CC1` [Ketotifen, 4-(1-methyl-4-piperidylidene)-4H-benzo[4,5]cyclohepta[1,2-b]thiophen-10(9H)-one], the pharmacological properties entry is reported as “anti-anaphylacticand anti-histamine properties”.
